From US12545640B2, “Substituted 6,7-dihydro-5H-benzo[7]annulene compounds, processes for their preparation and therapeutic uses thereof” (SANOFI, priority 2019, dated 2026)

Target: T1, ERα (Homo sapiens, UniProt P03372)
T1 construct: host or cells: MCF7 cells
T1 sequence (P03372 1-595): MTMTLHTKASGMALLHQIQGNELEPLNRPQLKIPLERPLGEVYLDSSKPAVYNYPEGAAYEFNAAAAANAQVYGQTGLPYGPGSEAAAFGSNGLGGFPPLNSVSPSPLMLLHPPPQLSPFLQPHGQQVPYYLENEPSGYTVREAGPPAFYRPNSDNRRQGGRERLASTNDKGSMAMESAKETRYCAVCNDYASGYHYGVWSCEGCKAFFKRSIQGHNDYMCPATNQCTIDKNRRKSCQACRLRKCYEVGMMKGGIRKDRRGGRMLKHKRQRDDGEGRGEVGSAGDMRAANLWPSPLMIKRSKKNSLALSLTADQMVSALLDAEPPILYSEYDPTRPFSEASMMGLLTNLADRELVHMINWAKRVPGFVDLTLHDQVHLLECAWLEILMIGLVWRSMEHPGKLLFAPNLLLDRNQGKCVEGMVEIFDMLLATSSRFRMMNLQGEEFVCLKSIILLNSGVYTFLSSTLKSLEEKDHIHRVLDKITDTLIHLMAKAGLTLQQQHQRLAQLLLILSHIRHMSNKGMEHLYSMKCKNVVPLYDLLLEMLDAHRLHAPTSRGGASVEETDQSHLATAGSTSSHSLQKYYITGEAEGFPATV
Assay: Estrogen receptor degradation activity: breast cancer cell ERα in cell western assay (MCF7 cells)
Format: cell-based
Conditions: 4 hours, final concentrations ranging from 3-0.000018 μM, relative to fulvestrant 0.1 μM positive control
Description: Test: Estrogen Receptor Degradation Activity
Said test involves measuring the in vitro degradation activity of the compounds of the invention.
The measurements of the degradation activities were made using a breast cancer cell ERα in cell western assay as described hereunder.
MCF7 cells (ATCC) were seeded in 384 wells microplate (collagen coated) at a concentration of 10000 cells/30 μL, per well in red phenol free MEM alpha medium (invitrogen) containing 5% charcoal dextran striped FBS. The following day, 9 points serial 1:5 dilution of each compound was added to the cells in 2.5 μL at final concentrations ranging either from 3-0.000018 μM (column «% Degradation at 3 μM in table 2) or from 0.3-0.0000018 μM (column «% Degradation at 0.3 μM in table 2), or 0.1 μM for fulvestrant (using as positive control). At 4 hours post compound addition the cells were fixed by adding 25 μL of formalin (final concentration 5% formalin containing 0.1% triton) for 10 minutes at room temperature and then washed twice with PBS. Then, 50 μL of LI-COR blocking buffer containing 0.1% Triton was added to plate for 30 minutes at room temperature. LI-COR blocking buffer was removed and cells were incubated overnight at cold room with 50 μL anti-ER rabbit monoclonal antibody (Thermo scientific MA1-39540) diluted at 1:1000 in LI-COR blocking buffer containing 0.1% tween-20. Wells which were treated with blocking buffer but no antibody were used as background control. Wells were washed twice with PBS (0.1% tween-20) and incubated at 37° C. for 60 minutes in LI-COR (0.1% tween-20) containing goat anti-rabbit antibody Alexa 488 (1:1000) and Syto-64 a DNA dye ([…]). Cells were then washed 3 times in PBS and scanned in ACUMEN explorer (TTP-Labtech). Integrated intensities in the green fluorescence and red fluorescence were measured to determine the levels of ERα and DNA respectively.

Row | SMILES | % Degradation At 3 μM [%]
1 | CC1(C)OB(c2ccc3c(c2)CCCC(c2ccc(Cl)cc2Cl)=C3c2ccc(O[C@H]3CCN(CCCF)C3)cc2)OC1(C)C [Example 1, (S)-3-(4-(8-(2,4-dichlorophenyl)-3-(4,4,5,5-tetramethyl-1,3,2-dioxaborolan-2-yl)-6,7-dihydro-5H-benzo[7]annulen-9-yl)phenoxy)-1-(3-fluoropropyl)pyrrolidine] | 86
2 | Oc1cc(-c2ccc3c(c2)CCCC(c2ccc(Cl)cc2Cl)=C3c2ccc(O[C@H]3CCN(CCCF)C3)cc2)on1 [Example 4, (S)-5-(8-(2,4-dichlorophenyl)-9-(4-((1-(3-fluoropropyl)pyrrolidin-3-yl)oxy)phenyl)-6,7-dihydro-5H-benzo[7]annulen-3-yl)isoxazol-3-ol] | 87
3 | FCCCN1CC[C@H](Oc2ccc(C3=C(c4ccc(Cl)cc4Cl)CCCc4cc(-c5nnco5)ccc43)cc2)C1 [Example 7, (S)-2-(8-(2,4-dichlorophenyl)-9-(4-((1-(3-fluoropropyl)pyrrolidin-3-yl)oxy)phenyl)-6,7-dihydro-5H-benzo[7]annulen-3-yl)-1,3,4-oxadiazole] | 86
4 | FCCCN1CC[C@H](Oc2ccc(C3=C(c4ccc(Cl)cc4Cl)CCCc4cc(-c5nncs5)ccc43)cc2)C1 [Example 9, (S)-2-(8-(2,4-dichlorophenyl)-9-(4-((1-(3-fluoropropyl)pyrrolidin-3-yl)oxy)phenyl)-6,7-dihydro-5H-benzo[7]annulen-3-yl)-1,3,4-thiadiazole] | 79
5 | O=c1cc(-c2ccc3c(c2)CCCC(c2ccc(Cl)cc2Cl)=C3c2ccc(O[C@H]3CCN(CCCF)C3)cc2)[nH][nH]1 [Example 12, (S)-5-(8-(2,4-dichlorophenyl)-9-(4-((1-(3-fluoropropyl)pyrrolidin-3-yl)oxy)phenyl)-6,7-dihydro-5H-benzo[7]annulen-3-yl)-1,2-dihydro-3H-pyrazol-3-one] | 83
6 | O=C1CC(c2ccc3c(c2)CCCC(c2ccc(Cl)cc2Cl)=C3c2ccc(O[C@H]3CCN(CCCF)C3)cc2)=NO1 [Example 13, (S)-3-(8-(2,4-dichlorophenyl)-9-(4-((1-(3-fluoropropyl)pyrrolidin-3-yl)oxy)phenyl)-6,7-dihydro-5H-benzo[7]annulen-3-yl)isoxazol-5(4H)-one] | 76
7 | FCCCN1CC[C@H](Oc2ccc(C3=C(c4ccc(Cl)cc4Cl)CCCc4cc(-c5cn[nH]c5)ccc43)cc2)C1 [Example 21, (S)-4-(8-(2,4-dichlorophenyl)-9-(4-((1-(3-fluoropropyl)pyrrolidin-3-yl)oxy)phenyl)-6,7-dihydro-5H-benzo[7]annulen-3-yl)-1H-pyrazole] | 78
8 | FCCCN1CC[C@H](Oc2ccc(C3=C(c4ccc(OC(F)(F)F)cc4)CCCc4cc(-c5cn[nH]c5)ccc43)cc2)C1 [Example 23, (S)-4-(9-(4-((1-(3-fluoropropyl)pyrrolidin-3-yl)oxy)phenyl)-8-(4-(trifluoromethoxy)phenyl)-6,7-dihydro-5H-benzo[7]annulen-3-yl)-1H-pyrazole] | 74
9 | FCCCN1CC[C@H](Oc2ccc(C3=C(c4ccc(OC(F)(F)F)cc4)CCCc4cc(OC(F)F)ccc43)cc2)C1 [Example 24, (S)-3-(4-(3-(difluoromethoxy)-8-(4-(trifluoromethoxy)phenyl)-6,7-dihydro-5H-benzo[7]annulen-9-yl)phenoxy)-1-(3-fluoropropyl)pyrrolidine] | 74

Other lines, results leading:

Row | % Degradation At 3 μM [%] | SMILES
10 | 95 | NC(=O)c1ccc2c(c1)CCCC(c1ccc(Cl)cc1Cl)=C2c1ccc(O[C@H]2CCN(CCCF)C2)cc1 [Example 3, (S)-8-(2,4-dichlorophenyl)-9-(4-((1-(3-fluoropropyl)pyrrolidin-3-yl)oxy)phenyl)-6,7-dihydro-5H-benzo[7]annulene-3-carboxamide]
11 | 93 | OC(c1ccc2c(c1)CCCC(c1ccc(Cl)cc1Cl)=C2c1ccc(O[C@H]2CCN(CCCF)C2)cc1)C(F)F (stereo partly drawn) [Example 5, 1-(8-(2,4-dichlorophenyl)-9-(4-(((S)-1-(3-fluoropropyl)pyrrolidin-3-yl)oxy)phenyl)-6,7-dihydro-5H-benzo[7]annulen-3-yl)-2,2-difluoroethan-1-ol]
12 | 88 | NNC(=O)c1ccc2c(c1)CCCC(c1ccc(Cl)cc1Cl)=C2c1ccc(O[C@H]2CCN(CCCF)C2)cc1 [Example 6, (S)-8-(2,4-dichlorophenyl)-9-(4-((1-(3-fluoropropyl)pyrrolidin-3-yl)oxy)phenyl)-6,7-dihydro-5H-benzo[7]annulene-3-carbohydrazide]
13 | 92 | OC(c1ccc2c(c1)CCCC(c1ccc(Cl)cc1Cl)=C2c1ccc(O[C@H]2CCN(CCCF)C2)cc1)C(F)(F)F (stereo partly drawn) [Example 10, 1-(8-(2,4-dichlorophenyl)-9-(4-(((S)-1-(3-fluoropropyl)pyrrolidin-3-yl)oxy)phenyl)-6,7-dihydro-5H-benzo[7]annulen-3-yl)-2,2,2-trifluoroethan-1-ol]
14 | 90 | NC(=O)NNC(=O)c1ccc2c(c1)CCCC(c1ccc(Cl)cc1Cl)=C2c1ccc(O[C@H]2CCN(CCCF)C2)cc1 [Example 14, (S)-2-(8-(2,4-dichlorophenyl)-9-(4-((1-(3-fluoropropyl)pyrrolidin-3-yl)oxy)phenyl)-6,7-dihydro-5H-benzo[7]annulene-3-carbonyl)hydrazine-1-carboxamide]
15 | 90 | CS(=O)(=O)NC(=O)c1ccc2c(c1)CCCC(c1ccc(Cl)cc1Cl)=C2c1ccc(O[C@H]2CCN(CCCF)C2)cc1 [Example 15, (S)-8-(2,4-dichlorophenyl)-9-(4-((1-(3-fluoropropyl)pyrrolidin-3-yl)oxy)phenyl)-(methylsulfonyl)-6,7-dihydro-5H-benzo[7]annulene-3-carboxamide]
16 | 86 | FCCCN1CC[C@H](Oc2ccc(C3=C(c4ccc(Cl)cc4Cl)CCCc4cc(-c5nn[nH]n5)ccc43)cc2)C1 [Example 16, (S)-5-(8-(2,4-dichlorophenyl)-9-(4-((1-(3-fluoropropyl)pyrrolidin-3-yl)oxy)phenyl)-6,7-dihydro-5H-benzo[7]annulen-3-yl)-2H-tetrazole]
17 | 84 | O=C(Nc1nn[nH]n1)c1ccc2c(c1)CCCC(c1ccc(Cl)cc1Cl)=C2c1ccc(O[C@H]2CCN(CCCF)C2)cc1 [Example 17, (S)-8-(2,4-dichlorophenyl)-9-(4-((1-(3-fluoropropyl)pyrrolidin-3-yl)oxy)phenyl)-N-(2H-tetrazol-5-yl)-6,7-dihydro-5H-benzo[7]annulene-3-carboxamide]
18 | 85 | O=C(NO)c1ccc2c(c1)CCCC(c1ccc(Cl)cc1Cl)=C2c1ccc(O[C@H]2CCN(CCCF)C2)cc1 [Example 18, (S)-8-(2,4-dichlorophenyl)-9-(4-((1-(3-fluoropropyl)pyrrolidin-3-yl)oxy)phenyl)-N-hydroxy-6,7-dihydro-5H-benzo[7]annulene-3-carboxamide]
19 | 86 | CONC(=O)c1ccc2c(c1)CCCC(c1ccc(Cl)cc1Cl)=C2c1ccc(O[C@H]2CCN(CCCF)C2)cc1 [Example 19, (S)-8-(2,4-dichlorophenyl)-9-(4-((1-(3-fluoropropyl)pyrrolidin-3-yl)oxy)phenyl)-N-methoxy-6,7-dihydro-5H-benzo[7]annulene-3-carboxamide]
20 | 85 | O=C(O)/C=C/c1ccc2c(c1)CCCC(c1ccc(Cl)cc1Cl)=C2c1ccc(O[C@H]2CCN(CCCF)C2)cc1 [Example 20, (S,E)-3-(8-(2,4-dichlorophenyl)-9-(4-((1-(3-fluoropropyl)pyrrolidin-3-yl)oxy)phenyl)-6,7-dihydro-5H-benzo[7]annulen-3-yl)acrylic acid]
21 | 82 | N#Cc1ccc2c(c1)CCCC(c1ccc(Cl)cc1Cl)=C2c1ccc(O[C@H]2CCN(CCCF)C2)cc1 [Example 22, (S)-8-(2,4-dichlorophenyl)-9-(4-((1-(3-fluoropropyl)pyrrolidin-3-yl)oxy)phenyl)-6,7-dihydro-5H-benzo[7]annulene-3-carbonitrile]
